Data: EP3470068B1, “ANTIBACTERIAL COMPOSITIONS WITH ENHANCED ACTIVITY” (Università degli Studi di Parma, priority 2017, dated 2019)
Peptide text beside a SMILES is read from it.

How the values were obtained:
MRSA ATCC 43300 [1] = assay: MIC by serial microdilution in liquid culture; assay type: cell-based, Methicillin Resistant Staphylococcus aureus (MRSA); settings: phosphate buffer 10 mM with 40% Müller Hinton broth, 24 hours at 37°C
Experimental: (§1) For each bacterial strain 3-5 morphologically similar colonies from fresh cultures were taken, inoculated in Brain Heart Infusion broth medium and then incubated at 37°C in agitation at 225 r.p.m. for about 3-4 hours. Subsequently, the bacterial suspension was centrifuged at 1000 r.p.m. for 20 minutes and the obtained pellet was resuspended in phosphate buffer 10 mM. Turbidity of the bacterial suspension was measured by evaluating the absorbance using a spectrophotometer at 600 nm. The range 0,08-0,13 equates to a concentration of about 10^8 CFU/ml. The bacterial suspension was diluted 1:100 in phosphate buffer 10 mM, then, within 30 minutes, 50 µl of this bacterial suspension (10^6 CFU/ml) were inoculated in each well of the microtiter plate to obtain a final bacterial concentration of about 5 x 10^5 CFU/ml.
(§2) The different molecules were tested for their ability to inhibit bacterial and fungal growth in broth culture. Single molecules were diluted in phosphate buffer 10 mM with 40% of Müller Hinton broth. 50 µl of diluted molecules were added to microtiter U plate wells with phosphate buffer and 40% of Müeller Hinton broth and a suspension of one of these strains: Escherichia coli ATCC 25922, Pseudomonas aeruginosa ATCC 27853, Staphylococcus aureus ATCC 25923, MRSA ATCC 43300, Candida albicans ATCC 11006 or Malassezia pachydermatis DSMZ 6172. […]

[2] = tested on: Staphylococcus aureus ATCC 25923; assay: MIC by serial microdilution in liquid culture; assay type: cell-based; settings: S. aureus ATCC 25923; phosphate buffer 10 mM with 40% Müller Hinton broth, 24 hours at 37°C
Experimental: as §1
(§3) The different molecules were tested for their ability to inhibit bacterial and fungal growth in broth culture. Single molecules were diluted in phosphate buffer 10 mM with 40% of Müller Hinton broth. 50 µl of diluted molecules were added to microtiter U plate wells with phosphate buffer and 40% of Müeller Hinton broth and a suspension of one of these strains: Escherichia coli ATCC 25922, Pseudomonas aeruginosa ATCC 27853, Staphylococcus aureus ATCC 25923, MRSA ATCC 43300, Candida albicans ATCC 11006 or Malassezia pachydermatis DSMZ 6172.
(§4) For bacterial strains the different molecules were tested at the following concentrations: • NCP-3: from 0,2 µg/ml to 50 µg/ml • Benzalkonium chloride: from 0,00008% to 0,04% • Thimerosal: from 0,0008% to 0,4% • Tris/EDTA: from 0,4%/0,1% to 0,0008%/0,0002%
(§5) Bacterial and fungal growth controls were cultured in absence of antimicrobial molecules. Microtiter plates were incubated 24 or 48 hours (bacterial and fungal strains, respectively) at 37°C and subsequently MIC was determined for each molecule against each strain.

[3] = tested on: Escherichia coli ATCC 25922; assay: MIC by serial microdilution in liquid culture; assay type: cell-based; settings: E. coli ATCC 25922; phosphate buffer 10 mM with 40% Müller Hinton broth, 24 hours at 37°C
Experimental: as §1, §3, §4, §5

[4] = tested on: Pseudomonas aeruginosa ATCC 27853; assay: MIC by serial microdilution in liquid culture; assay type: cell-based; settings: P. aeruginosa ATCC 27853; phosphate buffer 10 mM with 40% Müller Hinton broth, 24 hours at 37°C
Experimental: as §1, §3, §4, §5

[5] = tested on: Candida albicans ATCC 11006; assay: LD90/LD99 by microdilution and agar plating (CFU count); assay type: cell-based; settings: C. albicans ATCC 11006; two hours contact at 37°C, plated on Sabouraud agar, CFU counted
Experimental: (§6) For each fungal strain 3-5 morphologically similar colonies were collected from fresh cultures, inoculated in Brain Heart Infusion broth medium and then incubated at 37°C in agitation at 225 r.p.m. for 6-8 hours. Subsequently, the fungal suspension was centrifuged at 1000 r.p.m. for 20 minutes and the obtained pellet was resuspended in phosphate buffer 10 mM and diluted to a turbidity equal to 5 of McFarland standard, corresponding to a concentration of 10^8 CFU/ml. The fungal suspension was diluted 1:100 in phosphate buffer 10 mM, then, within 30 minutes, 50 µl of this bacterial suspension (10^6 CFU/ml) were inoculated in each well of microtiter plate to obtain a final concentration of about 5 x 10^5 CFU/ml.
(§7) Different molecules were tested for their ability to inhibit bacterial and fungal growth in broth culture. 50 µl of molecules at the indicated below concentrations were added to microtiter U plate 96 wells with phosphate buffer and a suspension of one of these strains: Escherichia coli ATCC 25922, Pseudomonas aeruginosa ATCC 27853, Staphylococcus aureus ATCC 25923, MRSA ATCC 43300, Candida albicans ATCC 11006 or Malassezia pachydermatis DSMZ 6172.
(§8) The following concentrations of the different molecules were tested: • NCP-3: from 0,2 µg/ml to 50 µg/ml • Benzalkonium chloride: from 0,00008% to 0,04% • Thimerosal: from 0,0008% to 0,4% • Tris/EDTA: from 0,4%/0,1% to 0,0008%/0,0002%
(§9) The bacterial or fungal suspension has been contacted for two hours with the different antimicrobial molecules at 37°C. After incubation, 20 µl of solution were withdrawn from each dilution and plated on agar medium, Columbia with 5% of bovine erythrocytes for bacterial strains and Sabouraud agar for fungal strains. The inoculum was uniformly distributed on agar plates with a sterile disposable handle. After incubation at 37°C for 24 hours for bacterial strains and 48 hours for fungal strains, colonies (CFU) were counted.

[6] = tested on: Malassezia pachydermatis DSMZ 6172; assay: as above; assay type: cell-based; settings: M. pachydermatis DSMZ 6172; two hours contact at 37°C, plated on Sabouraud agar, CFU counted
Experimental: as §6, §7, §8, §9

MRSA ATCC 43300 [7] = assay: as above; assay type: cell-based, Methicillin Resistant Staphylococcus aureus (MRSA); settings: two hours contact at 37°C, plated on agar, CFU counted
Experimental: as §1, with “colonies were collected” for “colonies”, “fresh cultures,” for “fresh cultures were taken,”, “CFU/ml. the” for “CFU/ml. The”
Different molecules were tested for their ability to inhibit bacterial and fungal growth in broth culture. […]
The bacterial or fungal suspension has been contacted for two hours with the different antimicrobial molecules at 37°C. […] After incubation at 37°C for 24 hours for bacterial strains and 48 hours for fungal strains, colonies (CFU) were counted.

Gram negative = assay: MIC by serial microdilution; assay type: cell-based; settings: used alone
Experimental: as §1, §2

Gram positive bacteria = assay: MIC by serial microdilution; assay type: cell-based; settings: used alone
Experimental: as §1, §2

[8] = tested on: Staphylococcus aureus ATCC 25923; assay: LD90/LD99 by microdilution and agar plating (CFU count); assay type: cell-based; settings: S. aureus ATCC 25923; two hours contact at 37°C, plated on agar, CFU counted
Experimental: as §1, with “colonies were collected” for “colonies”, “fresh cultures,” for “fresh cultures were taken,”, “CFU/ml. the” for “CFU/ml. The”
as §7, §8, §9

[9] = tested on: Escherichia coli ATCC 25922; assay: as above; assay type: cell-based; settings: E. coli ATCC 25922; two hours contact at 37°C, plated on agar, CFU counted
Experimental: as §1, with “colonies were collected” for “colonies”, “fresh cultures,” for “fresh cultures were taken,”, “CFU/ml. the” for “CFU/ml. The”
as §7, §8, §9

[10] = tested on: Pseudomonas aeruginosa ATCC 27853; assay: as above; assay type: cell-based; settings: P. aeruginosa ATCC 27853; two hours contact at 37°C, plated on agar, CFU counted
Experimental: as §1, with “colonies were collected” for “colonies”, “fresh cultures,” for “fresh cultures were taken,”, “CFU/ml. the” for “CFU/ml. The”
as §7, §8, §9

[11] = tested on: Candida albicans ATCC 11006; assay: MIC by serial microdilution in liquid culture; assay type: cell-based; settings: C. albicans ATCC 11006; phosphate buffer 10 mM with 40% Müller Hinton broth, 48 hours at 37°C
Experimental: as §6, with “Fungal” for “The fungal”
as §2

[12] = tested on: Malassezia pachydermatis DSMZ 6172; assay: MIC by serial microdilution in liquid culture; assay type: cell-based; settings: M. pachydermatis DSMZ 6172; phosphate buffer 10 mM with 40% Müller Hinton broth, 48 hours at 37°C
Experimental: as §6, with “Fungal” for “The fungal”
as §2

SMILES: CC[C@H](C)[C@H](NC(=O)[C@H](CCCCN)NC(=O)[C@H](Cc1ccc(O)cc1)NC(=O)[C@H](Cc1ccccc1)NC(=O)[C@H](CC(C)C)NC(=O)[C@H](CC(N)=O)NC(=O)[C@H](CCCCN)NC(=O)[C@@H](NC(=O)[C@H](C)NC(=O)[C@@H]1CCCN1C(=O)[C@@H](NC(=O)[C@@H](NC(=O)[C@H](CCCCN)NC(=O)[C@H](CO)NC(=O)[C@H](CC(C)C)NC(=O)[C@@H](NC(=O)[C@H](Cc1c[nH]c2ccccc12)NC(=O)[C@@H](NC(=O)[C@H](CC(C)C)NC(=O)[C@@H](N)CCCCN)[C@@H](C)CC)[C@@H](C)CC)[C@@H](C)O)[C@@H](C)CC)[C@@H](C)CC)C(=O)O [NCP-3] (H-KLIWILSKTIPAIKNLFYKI-OH)
- MIC (MRSA ATCC 43300 [1]): 6,3 µg/ml
- MIC [2]: 3,1 µg/ml
- MIC [3]: 6,3 µg/ml
- MIC [4]: 6,3 µg/ml
- LD90 [5]: >6,3 µg/ml
- LD99 [5]: 12,5 µg/ml
- LD90 [6]: >1,6 µg/ml
- LD99 [6]: 3,2 µg/ml
- LD90 (MRSA ATCC 43300 [7]): 6,3 µg/ml
- LD99 (MRSA ATCC 43300 [7]): 12,5 µg/ml
- MIC (Gram negative): 6,3 µg/ml
- MIC (Gram positive bacteria): 3,2 µg/ml
- LD90 [8]: >1,6 µg/ml
- LD99 [8]: 6,3 µg/ml
- LD90 [9]: 6,3 µg/ml
- LD99 [9]: 12,5 µg/ml
- LD90 [10]: 6,3 µg/ml
- LD99 [10]: 12,5 µg/ml
- MIC [11]: 12,5 µg/ml
- MIC [12]: 3,1 µg/ml
